In patent publication US10208019B2, “GLP-1 receptor agonists and uses thereof” (Pfizer Inc., priority 2016, dated 2019):
Read-outs that look alike come from different tables or passages of the source.

How the values were obtained:
human GLP-1R [1] = molecular target: human GLP-1R (Homo sapiens (Human), UniProt P43220, L260F); assay: CHO GLP-1R Clone C6—Assay 2: HTRF cAMP cell-based functional agonist assay (low GLP-1R density); settings: for EC50: CHO GLP-1R Clone C6, cAMP HTRF, geometric mean; for Emax: read-out: Assay 2 Emax (%)
human GLP-1R [2] = molecular target: human GLP-1R (Homo sapiens, UniProt P43220, G168S); assay: CHO GLP-1R Clone H6—Assay 1: HTRF cAMP cell-based functional agonist assay (high GLP-1R density); settings: for EC50: read-out: Assay 1 EC50, CHO GLP-1R Clone H6, cAMP HTRF, geometric mean
Description: GLP-1R-mediated agonist activity was determined with a cell-based functional assay utilizing an HTRF (Homogeneous Time-Resolved Fluorescence) cAMP detection kit (cAMP HI Range Assay Kit; CisBio cat #62AM6PEJ) that measures cAMP levels in the cell. The method is a competitive immunoassay between native cAMP produced by the cells and exogenous cAMP labeled with the dye d2. The tracer binding is visualized by a mAb anti-cAMP labeled with Cryptate. The specific signal (i.e. energy transfer) is inversely proportional to the concentration of cAMP in either standard or experimental sample.
The human GLP-1R coding sequence (NCBI Reference Sequence NP_002053.3, including naturally-occurring variant Gly168Ser) was subcloned into pcDNA3 (Invitrogen) and a cell line stably expressing the receptor was isolated (designated Clone H6).
Cells were removed from cryopreservation, re-suspended in 40 mL of Dulbecco's Phosphate Buffered Saline (DPBS-Lonza Cat #17-512Q) and centrifuged at 800×g for 5 min at 22° C. The cell pellet was then re-suspended in 10 mL of growth medium [DMEM/F12 1:1 Mixture with HEPES, L-Gln, 500 mL (DMEM/F12 Lonza Cat #12-719F), 10% heat inactivated fetal bovine serum (Gibco Cat #16140-071), 5 mL of 100× Pen-Strep (Gibco Cat #15140-122), 5 mL of 100× L-Glutamine (Gibco Cat #25030-081) and 500 μg/mL Geneticin (G418) (Invitrogen #10131035)]. A 1 mL sample of the cell suspension in growth media was counted on a Becton Dickinson ViCell to determine cell viability and cell count per mL. The remaining cell suspension was then adjusted with growth media to deliver 2000 viable cells per well using a Matrix Combi Multidrop reagent dispenser, and the cells were dispensed into a white 384 well tissue culture treated assay plate (Corning 3570). The assay plate was then incubated for 48 hours at 37° C. in a humidified environment in 5% carbon dioxide.
Varying concentrations of each compound to be tested (in DMSO) were diluted in assay buffer (HBSS with Calcium/Magnesium (Lonza/BioWhittaker cat #10-527F)/0.1% BSA (Sigma Aldrich cat #A7409-1L)/20 mM HEPES (Lonza/BioWhiftaker cat #17-737E) containing 100 μM 3-isobutyl-1-methylxanthin (IBMX; Sigma cat #15879). The final DMSO concentration is 1%.
After 48 hours, the growth media was removed from the assay plate wells, and the cells were treated with 20 μL of the serially diluted compound in assay buffer for 30 minutes at 37° C. in a humidified environment in 5% carbon dioxide. Following the 30 minute incubation, 10 μL of labeled d2 cAMP and 10 μL of anti-cAMP antibody (both diluted 1:20 in cell lysis buffer; as described in the manufacturer's assay protocol) were added to each well of the assay plate. The plates were then incubated at room temperature and after 60 minutes, changes in the HTRF signal were read with an Envision 2104 multi-label plate reader using excitation of 330 nm and emissions of 615 and 665 nm. Raw data were converted to nM cAMP by interpolation from a cAMP standard curve (as described in the manufacturer's assay protocol) and the percent effect was determined relative to a saturating concentration of the full agonist GLP-17-36 (1 μM) included on each plate. EC50 determinations were made from agonist dose-response curves analyzed with a curve fitting program using a 4-parameter logistic dose response equation.

[3] = CHO GLP-1R Clone C6, relative to saturating concentration of full agonist GLP-1 (1 μM), arithmetic mean
[4] = read-out: Assay 1 Emax (%), CHO GLP-1R Clone H6, relative to saturating concentration of full agonist GLP-1 (1 μM), arithmetic mean

Sequence of human GLP-1R (Homo sapiens, UniProt P43220, G168S) (P43220 24-463 G168S limits assumed): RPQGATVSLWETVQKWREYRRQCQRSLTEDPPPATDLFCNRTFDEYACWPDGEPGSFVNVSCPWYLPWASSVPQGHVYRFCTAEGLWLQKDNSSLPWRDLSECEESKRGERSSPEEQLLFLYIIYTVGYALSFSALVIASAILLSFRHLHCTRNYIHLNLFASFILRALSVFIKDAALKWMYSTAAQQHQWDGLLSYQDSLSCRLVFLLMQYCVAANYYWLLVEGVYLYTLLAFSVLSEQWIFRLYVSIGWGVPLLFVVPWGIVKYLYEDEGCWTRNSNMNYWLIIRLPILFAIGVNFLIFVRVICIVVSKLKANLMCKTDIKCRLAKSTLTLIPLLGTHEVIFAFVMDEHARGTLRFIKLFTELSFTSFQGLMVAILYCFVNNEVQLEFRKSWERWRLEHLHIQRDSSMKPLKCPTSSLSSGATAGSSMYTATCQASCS
Sequence of human GLP-1R (Homo sapiens (Human), UniProt P43220, L260F) (P43220 24-463 L260F): as the sequence (P43220 24-463 G168S limits assumed) above, with S145G, L237F counted along it

SMILES | EC50 (human GLP-1R [1]) | Emax (human GLP-1R [1]; [3]) | EC50 (human GLP-1R [2]) | Emax (human GLP-1R [2]; [4]) | Emax (human GLP-1R [1]) | Emax (human GLP-1R [2]; read-out: Assay 1 Emax (%))
CCOC(C)Cn1c(CN2CCC(c3cccc(OCc4ccc(Cl)cc4F)n3)CC2)nc2ccc(C(=O)O)cc21 (centres unmarked) [Example 11A-18, 2-[(4-{6-[(4-chloro-2-fluorobenzyl)oxy]pyridin-2-yl}piperidin-1-yl)methyl]-1-(2-ethoxypropyl)-1H-benzimidazole-6-carboxylic acid] | 270 nM | 92% | 14 nM | 80% | – | –
O=C(O)c1ccc2nc(CN3CCC(c4cccc(OCc5ccc(Cl)cc5F)n4)CC3)n(CCN3CCCC3=O)c2c1 [Example 10A-12] | 4400 nM | 110% | 110 nM | 68% | – | –
N#Cc1ccc(COc2cccc(N3CCN(Cc4nc5ccc(C(=O)O)cc5n4C[C@@H]4CCO4)CC3)n2)c(F)c1 [Example 5A-01, 2-[(4-{6-[(4-Cyano-2-fluorobenzyl)oxy]pyridin-2-yl}piperazin-1-yl)methyl]-1-[(2S)-oxetan-2-ylmethyl]-1H-benzimidazole-6-carboxylic acid] | 7.4 nM | 94% | 0.34 nM | 78% | – | –
COCCn1c(CN2CCN(c3ccc(F)c(OCc4ccc(Cl)cc4F)n3)C[C@@H]2C)nc2ccc(C(=O)O)cc21 [Example 1A-07, 2-{[(2S)-4-{6-[(4-chloro-2-fluorobenzyl)oxy]-5-fluoropyridin-2-yl}-2-methylpiperazin-1-yl]methyl}-1-(2-methoxyethyl)-1H-benzimidazole-6-carboxylic acid] | 45 nM | 82% | 3.9 nM | 82% | – | –
COC(C)(C)Cn1c(CN2CCC(c3cccc(OCc4ccc(Cl)cc4F)n3)CC2)nc2ccc(C(=O)O)cc21 [Example 11A-22, 2-[(4-{6-[(4-chloro-2-fluorobenzyl)oxy]pyridin-2-yl}piperidin-1-yl)methyl]-1-(2-methoxy-2-methylpropyl)-1H-benzimidazole-6-carboxylic acid] | 200 nM | 81% | 21 nM | 82% | – | –
O=C(O)c1ccc2nc(CN3CCC(c4cccc(OCc5ccc(Cl)cc5F)n4)CC3)n(CC3CCC3)c2c1 [Example 11A-16, 2-[(4-{6-[(4-chloro-2-fluorobenzyl)oxy]pyridin-2-yl}piperidin-1-yl)methyl]-1-(cyclobutylmethyl)-1H-benzimidazole-6-carboxylic acid] | 410 nM | 75% | 11 nM | 71% | – | –
O=C(O)c1ccc2nc(CN3CCC(c4cccc(OCc5ccc(Cl)cc5F)n4)CC3)n(CCn3cncn3)c2c1 [Example 11A-17, 2-[(4-{6-[(4-chloro-2-fluorobenzyl)oxy]pyridin-2-yl}piperidin-1-yl)methyl]-1-[2-(1H-1,2,4-triazol-1-yl)ethyl]-1H-benzimidazole-6-carboxylic acid] | 380 nM | 96% | 11 nM | 65% | – | –
COCCn1c(CN2CCN(c3cccc(OCc4ccc(C#N)cc4)n3)CC2)nc2ccc(C(=O)O)cc21 [Example 1A-11, 2-[(4-{6-[(4-cyanobenzyl)oxy]pyridin-2-yl}piperazin-1-yl)methyl]-1-(2-methoxyethyl)-1H-benzimidazole-6-carboxylic acid] | 530 nM | 97% | 19 nM | 76% | – | –
N#Cc1ccc(COc2cccc(C3CCN(Cc4nc5ccc(C(=O)O)cc5n4C[C@@H]4CCO4)CC3)n2)c(F)c1 [Example 4A-01, 2-[(4-{6-[(4-cyano-2-fluorobenzyl)oxy]pyridin-2-yl}piperidin-1-yl)methyl]-1-[(2S)-oxetan-2-ylmethyl]-1H-benzimidazole-6-carboxylic acid] | – | – | – | – | 100% | 79%
N#Cc1ccc(COc2cccc(N3CCN(Cc4nc5ccc(C(=O)O)nc5n4C[C@@H]4CCO4)CC3)n2)c(F)c1 [Example 10A-77, 2-[(4-{6-[(4-cyano-2-fluorobenzyl)oxy]pyridin-2-yl}piperazin-1-yl)methyl]-3-[(2S)-oxetan-2-ylmethyl]-3H-imidazo[4,5-b]pyridine-5-carboxylic acid] | 10 nM | 120% | 0.96 nM | 100% | – | –
